# Results as given in ChEMBL document CHEMBL1201862, “PubChem BioAssay data set” (2004).
# Calls of active or inactive are those of the source.
# Experiments:
# Kallikrein-7 = Kallikrein-7 (Homo sapiens, UniProt P49862); assay: Fluorescence Intensity-based biochemical primary high throughput dose response assay to identify activators of kallikrein-7 (K7) zymogen.
# [1] = Trypanosoma cruzi growth suppression in host cells – NIH3T3 host cells, beta-gal luminescence, confirmation (AID 2044); assay type: functional, cell-based;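 note: intracellular parasites grown in NIH/3T3 mouse fibroblasts as host cells; luminescent beta-galactosidase reporter signal from transgenic T. cruzi replicating inside host cells; inhibitors lower the luminescence signal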
# [2] = NIH3T3 cell viability loss – ATP luminescence, mouse fibroblasts, counter-screen, dose response (AID 2010); assay type: functional, cell-based;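 note: cells exposed to compound for about 90 hours before reading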
# [3] = viability loss in HepG2 hepatoma cells – cell-based, ATP luminescence, cherry-pick, activator set 2, cytotoxicity control, dose response (AID 1053143); assay type: functional
# HEK293 [4] = assay: inhibition of NOD1-driven NF-kB reporter – cell-based, luminescence, uHTS, primary screen (AID 1578); assay type: functional; conditions: Homo sapiens
# HEK293 [5] = assay: cells; assay type: functional, cell-based; conditions: Homo sapiens
# HEK293 [6] = assay: cells; assay type: functional, cell-based; conditions: Homo sapiens; remark: listed apart in the source
# HEK293 [7] = assay: NOD2 signaling inhibitors in MDP-stimulated cells, cell-based, uHTS, luminescence (AID 2001); assay type: functional; conditions: Homo sapiens
# [8] = reduction of Shn3 3'UTR-driven luciferase in osteoblasts – cell-based, Clone20 osteoblasts, firefly luciferase, cherry-picked, dose response (AID 624132); assay type: functional;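 note: firefly luciferase luminescence from reporter carrying the Shn3 3'UTR in osteoblasts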
# [9] = loss of viability in HepG2 cells – cell-based, CellTiter-Glo, cherry-picked, cytotoxicity control for Shn3 inhibitor project, dose response (AID 624134); assay type: functional
# [10] = non-specific 3'UTR reporter inhibition in Clone20-Shn3RL – cell-based, Renilla luciferase, cherry-picked, counter-screen for Shn3 inhibitor project, dose response (AID 624133); assay type: functional
# Galanin receptor type 3 = target: T1, Galanin receptor type 3 (Homo sapiens, UniProt O60755); assay: Fluorescence-based cell-based primary high throughput dose response assay to identify antagonists of the Galanin Receptor 3 (GalR3).; assay type: functional
# T1 sequence (O60755 whole entry): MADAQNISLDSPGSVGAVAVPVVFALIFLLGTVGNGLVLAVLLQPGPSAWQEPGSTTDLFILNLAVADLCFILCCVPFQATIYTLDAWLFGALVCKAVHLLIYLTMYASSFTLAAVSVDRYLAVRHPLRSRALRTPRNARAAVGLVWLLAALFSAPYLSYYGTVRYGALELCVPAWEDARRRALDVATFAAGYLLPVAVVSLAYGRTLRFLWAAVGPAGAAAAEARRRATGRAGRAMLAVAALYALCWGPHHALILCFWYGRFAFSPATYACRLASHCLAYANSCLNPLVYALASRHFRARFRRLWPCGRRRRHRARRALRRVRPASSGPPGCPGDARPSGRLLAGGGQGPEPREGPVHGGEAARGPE
# cells = assay type: functional, cell-based; conditions: HEK-CNG
# [11] = target: COUP transcription factor 2 (Homo sapiens, UniProt P24468); assay: Luminescence-based cell-based high throughput dose response assay to identify inhibitors of COUP-TFII (NR2F2).; assay type: functional;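 note: HEK293 cells transiently cotransfected with COUP-TFII expression vector and reporter; luciferase reporter luminescence driven by COUP-TFII from the pX2-168 reporter plasmid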
# [12] = target: Luciferin 4-monooxygenase (Photinus pyralis, UniProt P08659); assay: inhibition of purified Photinus pyralis luciferase – biochemical, luminescence, dose response (AID 1891)
# [13] = Luminescence Cell-Based Dose Confirmation HTS to Identify Inhibitors of Platelet Dense Granule Release. [Related pubchem assays: 1663 (Primary HTS), 1678 (Summary of Project)]; assay type: functional
# [14] = target: 1-phosphatidylinositol 4,5-bisphosphate phosphodiesterase gamma-1 (Homo sapiens, UniProt P19174); assay: Counterscreen for inhibitors of phospholipase C isozymes (PLC-B3): Fluorescence-based biochemical high throughput dose response assay to identify inhibitors of phospholipase C isozymes (PLC-gamma1).
# [15] = target: 1-phosphatidylinositol 4,5-bisphosphate phosphodiesterase beta-3 (Homo sapiens, UniProt Q01970); assay: Fluorescence-based biochemical high throughput dose response assay to identify inhibitors of phospholipase C isozymes (PLC-B3).
# Paired box protein Pax-8 = Paired box protein Pax-8 (Homo sapiens, UniProt Q06710); assay: PAX8 transcriptional activity inhibition in RMG-I – RMG-I cells, luciferase, cherry-pick, dose response (AID 687027); assay type: functional, cell-based;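 note: luciferase reporter driven by Pax8 target thyroperoxidase promoter measured by SteadyGlo luminescence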
# [16] = toxicity toward immortalized ovarian surface epithelium – cell-based, plate reader, dry powder samples, cytotoxicity control for PAX8 inhibitor project, dose response (AID 743045); assay type: functional
# [17] = OVCAR-3 cell viability loss – plate reader, dry powder samples, PAX8 inhibitor project, dose response (AID 743044); assay type: functional, cell-based
# [18] = OVCAR8 cell viability loss – plate reader, dry powder samples, PAX8 project, dose response (AID 743197); assay type: functional, cell-based; conditions: OVCAR-8
# Nonstructural protein 1 = Nonstructural protein 1 (Influenza A virus, UniProt Q194T2); assay type: functional, Influenza A virus (A/California/07/2009(H1N1))
# [19] = viability loss in HeLa cells – cytotoxicity control for MgcRacGAP inhibitor project, dose response (AID 624300); assay type: functional
# [20] = target: T2, Rac GTPase-activating protein 1 (Homo sapiens, UniProt Q9H0H5); assay: blockers of MgcRacGAP-driven Rac1 GTP hydrolysis – biochemical, ADP Hunter fluorescence, primary and confirmatory, confirmation (AID 624330); assay type: functional
# T2 sequence (Q9H0H5 whole entry): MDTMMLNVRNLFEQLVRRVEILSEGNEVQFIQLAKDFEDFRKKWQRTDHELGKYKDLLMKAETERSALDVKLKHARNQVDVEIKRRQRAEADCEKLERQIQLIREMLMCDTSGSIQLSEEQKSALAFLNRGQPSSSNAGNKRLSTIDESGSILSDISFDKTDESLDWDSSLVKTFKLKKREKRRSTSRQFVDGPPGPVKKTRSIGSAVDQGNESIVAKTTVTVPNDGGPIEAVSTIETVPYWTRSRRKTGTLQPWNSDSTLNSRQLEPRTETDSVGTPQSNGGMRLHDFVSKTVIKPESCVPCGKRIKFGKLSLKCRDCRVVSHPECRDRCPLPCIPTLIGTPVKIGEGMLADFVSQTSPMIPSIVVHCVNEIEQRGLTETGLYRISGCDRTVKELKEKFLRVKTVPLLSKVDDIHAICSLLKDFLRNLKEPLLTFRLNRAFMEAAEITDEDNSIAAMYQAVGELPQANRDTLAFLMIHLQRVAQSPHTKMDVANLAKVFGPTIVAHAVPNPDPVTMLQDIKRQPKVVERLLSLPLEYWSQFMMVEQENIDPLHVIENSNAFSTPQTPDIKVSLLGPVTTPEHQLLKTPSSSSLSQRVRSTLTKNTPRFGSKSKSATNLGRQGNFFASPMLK
# [21] = target: T3, DNA repair protein RAD52 homolog (Homo sapiens, UniProt P43351); assay type: functional, biochemical
# T3 sequence (P43351 whole entry): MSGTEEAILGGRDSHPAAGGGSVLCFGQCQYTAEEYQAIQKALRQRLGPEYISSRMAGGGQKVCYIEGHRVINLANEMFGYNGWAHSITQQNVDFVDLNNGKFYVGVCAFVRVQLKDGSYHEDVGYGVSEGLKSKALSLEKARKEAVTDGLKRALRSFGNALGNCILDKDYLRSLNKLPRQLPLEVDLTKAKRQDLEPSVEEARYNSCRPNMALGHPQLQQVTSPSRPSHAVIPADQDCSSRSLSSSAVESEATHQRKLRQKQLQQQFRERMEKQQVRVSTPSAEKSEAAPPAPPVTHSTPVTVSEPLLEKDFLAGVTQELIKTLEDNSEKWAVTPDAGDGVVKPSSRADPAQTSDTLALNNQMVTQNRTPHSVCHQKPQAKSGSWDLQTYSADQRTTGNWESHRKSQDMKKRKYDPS
# [22] = target: Matrix metalloproteinase-14 (Homo sapiens, UniProt P50281); assay: Dose Response confirmation of uHTS hits for a small molecule inhibitors of MT1-MMP activation in a fluorescence assay set 1.; assay type: functional
# [23] = target: T4, Histone-lysine N-methyltransferase NSD2 (Homo sapiens, UniProt O96028); assay type: biochemical
# T4 sequence (O96028 whole entry): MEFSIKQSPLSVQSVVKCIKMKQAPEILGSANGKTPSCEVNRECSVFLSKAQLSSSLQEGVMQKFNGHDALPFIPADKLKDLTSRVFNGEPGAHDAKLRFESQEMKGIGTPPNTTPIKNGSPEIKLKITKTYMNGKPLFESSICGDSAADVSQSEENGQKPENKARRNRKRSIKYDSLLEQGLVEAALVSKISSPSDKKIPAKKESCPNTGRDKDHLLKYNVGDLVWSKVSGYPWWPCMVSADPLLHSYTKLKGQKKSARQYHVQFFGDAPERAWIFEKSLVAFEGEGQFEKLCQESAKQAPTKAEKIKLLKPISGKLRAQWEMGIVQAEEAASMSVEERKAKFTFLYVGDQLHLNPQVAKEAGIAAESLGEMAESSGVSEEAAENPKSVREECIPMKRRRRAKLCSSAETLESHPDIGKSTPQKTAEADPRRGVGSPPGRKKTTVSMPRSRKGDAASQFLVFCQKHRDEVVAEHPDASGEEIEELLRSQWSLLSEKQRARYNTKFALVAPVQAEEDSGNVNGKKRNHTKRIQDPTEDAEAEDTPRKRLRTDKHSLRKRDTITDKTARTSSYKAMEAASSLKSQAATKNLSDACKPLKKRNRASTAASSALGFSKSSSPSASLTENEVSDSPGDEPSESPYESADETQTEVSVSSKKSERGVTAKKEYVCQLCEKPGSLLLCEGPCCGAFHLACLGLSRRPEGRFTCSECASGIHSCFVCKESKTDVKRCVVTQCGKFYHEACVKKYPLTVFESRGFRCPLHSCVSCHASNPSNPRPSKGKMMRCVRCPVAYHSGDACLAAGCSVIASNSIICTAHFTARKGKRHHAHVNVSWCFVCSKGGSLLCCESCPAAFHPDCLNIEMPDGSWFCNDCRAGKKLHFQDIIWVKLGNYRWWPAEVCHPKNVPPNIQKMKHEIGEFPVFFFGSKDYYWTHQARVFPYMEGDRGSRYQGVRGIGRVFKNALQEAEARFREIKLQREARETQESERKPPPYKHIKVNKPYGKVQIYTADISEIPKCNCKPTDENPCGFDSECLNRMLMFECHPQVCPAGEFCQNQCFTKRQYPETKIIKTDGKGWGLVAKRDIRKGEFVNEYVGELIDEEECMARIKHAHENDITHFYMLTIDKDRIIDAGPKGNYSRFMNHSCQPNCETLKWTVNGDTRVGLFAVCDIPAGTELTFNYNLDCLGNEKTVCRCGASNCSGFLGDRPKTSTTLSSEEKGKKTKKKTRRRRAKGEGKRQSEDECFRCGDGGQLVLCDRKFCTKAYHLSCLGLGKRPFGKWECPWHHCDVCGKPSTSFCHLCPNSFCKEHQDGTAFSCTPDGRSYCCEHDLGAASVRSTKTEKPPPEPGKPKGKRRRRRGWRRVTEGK
# [24] = HGIII-sPLA2 enzyme inhibition potency – biochemical, QFRET, IC50, dose response (AID 743457);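 note: green fluorescence rise as the enzyme cleaves BODIPY PC-A2 in liposomes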
# Sequence of Kallikrein-7 (P49862 whole entry): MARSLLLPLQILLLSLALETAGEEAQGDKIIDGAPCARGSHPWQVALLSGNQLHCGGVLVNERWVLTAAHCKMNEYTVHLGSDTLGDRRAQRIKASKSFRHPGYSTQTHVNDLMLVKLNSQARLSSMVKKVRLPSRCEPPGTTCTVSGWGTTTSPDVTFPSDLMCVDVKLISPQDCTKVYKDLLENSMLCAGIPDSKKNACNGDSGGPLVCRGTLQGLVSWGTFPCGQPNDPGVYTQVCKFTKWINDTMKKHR
# Sequence of COUP transcription factor 2 (P24468 whole entry): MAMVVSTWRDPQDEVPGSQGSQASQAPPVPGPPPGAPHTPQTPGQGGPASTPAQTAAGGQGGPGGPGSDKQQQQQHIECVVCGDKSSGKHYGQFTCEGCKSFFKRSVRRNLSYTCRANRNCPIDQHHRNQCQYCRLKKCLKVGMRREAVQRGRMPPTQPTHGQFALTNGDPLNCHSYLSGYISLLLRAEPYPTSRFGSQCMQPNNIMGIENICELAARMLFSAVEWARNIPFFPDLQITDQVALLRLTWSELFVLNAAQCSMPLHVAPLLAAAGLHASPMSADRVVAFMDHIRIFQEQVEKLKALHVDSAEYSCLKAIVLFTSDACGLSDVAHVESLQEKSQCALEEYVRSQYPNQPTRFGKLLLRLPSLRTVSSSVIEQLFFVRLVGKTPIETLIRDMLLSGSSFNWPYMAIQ
# Sequence of 1-phosphatidylinositol 4,5-bisphosphate phosphodiesterase gamma-1 (P19174 whole entry): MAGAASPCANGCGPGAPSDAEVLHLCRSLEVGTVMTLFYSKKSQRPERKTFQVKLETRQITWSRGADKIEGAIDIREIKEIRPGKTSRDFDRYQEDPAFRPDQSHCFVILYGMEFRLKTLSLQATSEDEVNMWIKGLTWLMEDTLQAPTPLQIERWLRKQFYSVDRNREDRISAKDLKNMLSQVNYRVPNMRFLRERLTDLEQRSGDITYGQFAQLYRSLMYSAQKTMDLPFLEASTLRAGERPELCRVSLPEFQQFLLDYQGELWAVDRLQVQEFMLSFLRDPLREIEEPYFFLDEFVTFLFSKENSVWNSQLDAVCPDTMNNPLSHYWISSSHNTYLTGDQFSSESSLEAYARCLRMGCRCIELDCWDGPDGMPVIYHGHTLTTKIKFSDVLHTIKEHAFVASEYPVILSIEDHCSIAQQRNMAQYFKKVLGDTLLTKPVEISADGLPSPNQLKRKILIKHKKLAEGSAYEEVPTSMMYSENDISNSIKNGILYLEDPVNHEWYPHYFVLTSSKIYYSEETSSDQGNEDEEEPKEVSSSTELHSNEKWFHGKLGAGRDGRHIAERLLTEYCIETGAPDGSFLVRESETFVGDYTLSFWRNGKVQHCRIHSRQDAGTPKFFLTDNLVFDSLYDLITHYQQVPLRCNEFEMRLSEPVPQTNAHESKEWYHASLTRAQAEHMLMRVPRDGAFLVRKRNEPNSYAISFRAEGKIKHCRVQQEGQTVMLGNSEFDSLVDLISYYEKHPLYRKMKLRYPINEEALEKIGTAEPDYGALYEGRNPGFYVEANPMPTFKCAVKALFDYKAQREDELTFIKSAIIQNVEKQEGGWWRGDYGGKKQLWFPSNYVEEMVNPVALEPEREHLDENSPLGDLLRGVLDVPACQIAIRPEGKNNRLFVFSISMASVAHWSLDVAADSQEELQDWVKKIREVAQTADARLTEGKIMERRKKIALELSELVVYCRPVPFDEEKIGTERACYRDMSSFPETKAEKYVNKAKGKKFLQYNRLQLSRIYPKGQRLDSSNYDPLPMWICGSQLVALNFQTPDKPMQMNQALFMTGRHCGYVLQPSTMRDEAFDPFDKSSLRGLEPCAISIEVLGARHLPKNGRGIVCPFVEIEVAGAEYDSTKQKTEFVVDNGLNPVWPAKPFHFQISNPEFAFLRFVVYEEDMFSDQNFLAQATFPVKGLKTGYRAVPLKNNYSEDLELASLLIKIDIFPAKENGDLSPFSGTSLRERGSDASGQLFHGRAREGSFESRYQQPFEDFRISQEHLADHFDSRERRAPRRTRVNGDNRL
# Sequence of 1-phosphatidylinositol 4,5-bisphosphate phosphodiesterase beta-3 (Q01970 whole entry): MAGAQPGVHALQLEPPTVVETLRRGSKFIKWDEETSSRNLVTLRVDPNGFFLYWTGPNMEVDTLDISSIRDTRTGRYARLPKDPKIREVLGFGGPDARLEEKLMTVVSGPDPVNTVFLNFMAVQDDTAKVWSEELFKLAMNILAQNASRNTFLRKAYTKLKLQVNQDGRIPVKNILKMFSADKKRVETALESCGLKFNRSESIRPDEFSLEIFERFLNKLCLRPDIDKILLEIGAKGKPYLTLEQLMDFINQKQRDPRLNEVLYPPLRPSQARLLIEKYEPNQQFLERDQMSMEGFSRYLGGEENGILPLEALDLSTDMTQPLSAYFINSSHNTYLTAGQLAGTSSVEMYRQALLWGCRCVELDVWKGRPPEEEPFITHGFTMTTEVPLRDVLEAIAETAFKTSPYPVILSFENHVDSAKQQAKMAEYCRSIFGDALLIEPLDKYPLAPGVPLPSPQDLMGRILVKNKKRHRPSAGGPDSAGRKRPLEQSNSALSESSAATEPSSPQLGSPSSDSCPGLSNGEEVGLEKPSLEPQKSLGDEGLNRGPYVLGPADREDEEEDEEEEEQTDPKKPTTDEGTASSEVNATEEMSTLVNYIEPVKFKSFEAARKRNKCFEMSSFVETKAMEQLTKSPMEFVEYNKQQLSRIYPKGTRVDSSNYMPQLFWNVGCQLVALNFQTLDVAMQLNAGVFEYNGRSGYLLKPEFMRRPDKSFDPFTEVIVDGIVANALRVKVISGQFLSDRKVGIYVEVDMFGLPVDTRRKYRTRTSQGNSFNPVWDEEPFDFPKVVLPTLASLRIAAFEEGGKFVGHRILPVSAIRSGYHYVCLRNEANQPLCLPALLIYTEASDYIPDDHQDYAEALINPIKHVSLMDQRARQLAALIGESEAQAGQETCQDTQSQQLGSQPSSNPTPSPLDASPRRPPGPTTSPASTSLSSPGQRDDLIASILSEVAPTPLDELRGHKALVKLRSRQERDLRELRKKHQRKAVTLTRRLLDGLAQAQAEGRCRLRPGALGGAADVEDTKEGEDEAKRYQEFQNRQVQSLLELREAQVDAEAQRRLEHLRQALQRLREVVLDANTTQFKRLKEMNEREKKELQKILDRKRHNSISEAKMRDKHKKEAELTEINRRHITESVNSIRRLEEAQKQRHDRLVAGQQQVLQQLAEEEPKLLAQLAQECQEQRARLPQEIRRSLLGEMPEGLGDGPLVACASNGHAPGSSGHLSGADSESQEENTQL
# Sequence of Nonstructural protein 1 (Q194T2 whole entry): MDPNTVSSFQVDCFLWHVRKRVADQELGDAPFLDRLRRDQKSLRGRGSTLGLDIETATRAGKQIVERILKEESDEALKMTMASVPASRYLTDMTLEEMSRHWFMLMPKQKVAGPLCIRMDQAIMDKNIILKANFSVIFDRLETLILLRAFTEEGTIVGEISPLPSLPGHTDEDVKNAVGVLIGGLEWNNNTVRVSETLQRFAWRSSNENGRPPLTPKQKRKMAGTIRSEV
# Sequence of Luciferin 4-monooxygenase (P08659 whole entry): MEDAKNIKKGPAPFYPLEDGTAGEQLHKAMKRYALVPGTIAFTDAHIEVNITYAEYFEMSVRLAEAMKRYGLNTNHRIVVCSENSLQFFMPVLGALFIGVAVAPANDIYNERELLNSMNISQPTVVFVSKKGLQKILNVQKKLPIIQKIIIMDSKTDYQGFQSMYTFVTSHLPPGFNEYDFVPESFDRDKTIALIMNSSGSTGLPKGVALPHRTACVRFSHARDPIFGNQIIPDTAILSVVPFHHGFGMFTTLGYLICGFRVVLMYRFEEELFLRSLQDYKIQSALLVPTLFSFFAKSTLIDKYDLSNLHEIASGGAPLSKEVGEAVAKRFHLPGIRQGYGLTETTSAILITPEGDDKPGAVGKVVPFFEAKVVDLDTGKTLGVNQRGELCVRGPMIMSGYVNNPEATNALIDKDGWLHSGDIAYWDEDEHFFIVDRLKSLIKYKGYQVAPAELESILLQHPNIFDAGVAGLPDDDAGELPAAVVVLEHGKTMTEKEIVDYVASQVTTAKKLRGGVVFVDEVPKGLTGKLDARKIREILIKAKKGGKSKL
# Sequence of Paired box protein Pax-8 (Q06710 whole entry): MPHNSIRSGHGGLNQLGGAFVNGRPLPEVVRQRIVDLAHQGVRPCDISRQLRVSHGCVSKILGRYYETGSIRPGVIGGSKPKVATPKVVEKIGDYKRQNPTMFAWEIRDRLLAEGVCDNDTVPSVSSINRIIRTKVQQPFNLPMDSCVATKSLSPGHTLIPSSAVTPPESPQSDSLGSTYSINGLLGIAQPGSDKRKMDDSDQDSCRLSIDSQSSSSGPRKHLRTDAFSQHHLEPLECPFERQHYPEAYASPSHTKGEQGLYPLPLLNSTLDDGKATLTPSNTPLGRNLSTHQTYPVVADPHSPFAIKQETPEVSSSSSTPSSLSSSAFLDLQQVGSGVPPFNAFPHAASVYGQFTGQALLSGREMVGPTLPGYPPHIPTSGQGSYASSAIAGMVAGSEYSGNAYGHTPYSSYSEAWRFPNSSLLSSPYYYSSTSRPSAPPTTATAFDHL
structure (smiles),measurement,setting,value
CCCc1cc(NCCN(C)C)n2c(nc3ccccc32)c1C#N,EC50,Kallikrein-7,> 69.5 µM (inactive)
CC1CCC(C(C)C)C(OC(=O)COC(=O)c2cc(O)ccc2N)C1 (configuration not stated),EC50,[1],4.92 µM (active)
same,EC50,[2],> 60 µM (not active)
same,AC50,[3],26 µM (active)
O=C(Cc1ccc(Cl)cc1Cl)Nc1ccncc1Cl,EC50,HEK293 [4],3.7 µM (active)
same,IC50,HEK293 [5],5.77 µM (active)
same,IC50,HEK293 [6],> 20 µM (inactive)
same,IC50,HEK293 [7],6.02 µM (active)
same,AC50,[8],1.63 µM (active)
same,AC50,[9],2.91 µM (active)
same,AC50,[10],3.91 µM (active)
same,IC50,Galanin receptor type 3,4.44 µM (active)
same,EC50,cells,> 29.9 µM (inactive)
same,IC50,[11],11.6 µM (inactive)
Cc1cc(NC(=O)c2cccc(F)c2)ncc1NC(=O)c1ccco1,EC50,[12],7.28 µM (active)
same,EC50,[13],7.21 µM (active)
same,AC50,[3],26 µM (active)
CC1=C(C(=O)OCc2ccc([N+](=O)[O-])cc2)N2C(=O)C(NC(=O)Cc3ccccc3)C2SC1 (configuration not stated),IC50,[14],30.8 µM (inactive)
same,IC50,[15],> 122 µM (inactive)
COc1ccc(S(=O)(=O)Nc2ccc3c(c2)C(=O)N([C@H](C)CO)C[C@H](C)[C@H](CN(C)Cc2ccc(C(F)(F)F)cc2)OCCCC[C@H](C)O3)cc1,AC50,Paired box protein Pax-8,9.51 µM (active)
same,AC50,[16],50.7 µM (active)
same,AC50,[17],22.9 µM (active)
same,AC50,[18],31.6 µM (active)
CN(C)c1ccc(C=c2c3ccccc3n3c2c2c([n+]3C)CCCC2)cc1,IC50,Nonstructural protein 1,11 µM (active)
same,CC50,[19],16.9 µM (active)
same,IC50,[20],38.3 µM (active)
same,IC50,Galanin receptor type 3,1.31 µM (active)
same,EC50,cells,> 29.9 µM (inactive)
same,AC50,[21],0.914 µM (active)
same,IC50,[22],> 80 µM (inactive)
same,AC50,[23],7.63 µM (active)
same,IC50,[24],71.1 µM (inactive)
